Assay results: patent US20160135464A1, “PESTICIDAL COMPOSITIONS AND PROCESSES RELATED THERETO” (Dow AgroSciences LLC, priority 2014, published 2016)

What was measured:
[1] = test system: Corn Earworm (CEW) (Helicoverpa zea); assay: Bioassay on corn earworm (CEW), 128-well diet tray assay, percent mortality; assay type: in vivo; conditions: Helicoverpa zea, 50 μg/cm^2
Protocol: (§1) Certain molecules disclosed in this document were tested against BAW and CEW using procedures described in the following examples. In the reporting of the results, the “BAW & CEW Rating Table” was used (See Table Section).
Bioassays on CEW (Helicoverpa zea)
Bioassays on CEW were conducted using a 128-well diet tray assay. One to five second instar CEW larvae were placed in each well (3 mL) of the diet tray that had been previously filled with 1 mL of artificial diet to which 50 μg/cm^2 of the test compound (dissolved in 50 μL of 90:10 acetone-water mixture) had been applied (to each of eight wells) and then allowed to dry. Trays were covered with a clear self-adhesive cover and held at 25° C., 14:10 light-dark for five to seven days. Percent mortality was recorded for the larvae in each well; activity in the eight wells was then averaged. The results are indicated in the table entitled “Table 5: Biological Results” (See Table Section).

[2] = test system: Green Peach Aphid (GPA) (Myzus persicae); assay: Bioassay on green peach aphid (GPA), foliar spray on cabbage seedlings, corrected % control; assay type: in vivo; conditions: 72 h, read-out: % Mortality GPA 200 ppm
Protocol: Certain molecules disclosed in this document were tested against GPA using procedures described in the following example. In the reporting of the results, the “GPA Rating Table” was used (See Table Section).
Cabbage seedlings grown in 3-inch pots, with 2-3 small (3-5 cm) true leaves, were used as test substrate. The seedlings were infested with 20-50 GPA (wingless adult and nymph stages) one day prior to chemical application. Four pots with individual seedlings were used for each treatment. Test compounds (2 mg) were dissolved in 2 mL of acetone/methanol (1:1) solvent, forming stock solutions of 1000 ppm test compound. […] A hand-held aspirator-type sprayer was used for spraying a solution to both sides of […] leaves until runoff. Reference plants (solvent check) were sprayed with the diluent only containing 20% by volume of acetone/methanol (1:1) solvent. Treated plants were held in a holding room for three days at approximately 25° C. and ambient relative humidity (RH) prior to grading. Evaluation was conducted by counting the number of live aphids per plant under a microscope.
Corrected % Control=100*(X−Y)/X • where • X=No. of live aphids on solvent check plants and • Y=No. of live aphids on treated plants
The results are indicated in the table entitled “Table 5: Biological Results” (See Table Section).

[3] = test system: Beet Armyworm (BAW) (Spodoptera exigua); assay: Bioassay on beet armyworm (BAW), 128-well diet tray assay, percent mortality; assay type: in vivo; conditions: Spodoptera exigua, 50 μg/cm^2
Protocol: as §1
Bioassays on BAW (Spodoptera exigua)
Bioassays on BAW were conducted using a 128-well diet tray assay. One to five second instar BAW larvae were placed in each well (3 mL) of the diet tray that had been previously filled with 1 mL of artificial diet to which 50 μg/cm^2 of the test compound (dissolved in 50 μL of 90:10 acetone-water mixture) had been applied (to each of eight wells) and then allowed to dry. Trays were covered with a clear self-adhesive cover and held at 25° C., 14:10 light-dark for five to seven days. Percent mortality was recorded for the larvae in each well; activity in the eight wells was then averaged. The results are indicated in the table entitled “Table 5: Biological Results” (See Table Section).

Cc1cc(C)c(N2C(=O)CS/C2=N\N=C\c2ccc(-c3ncn(-c4ccc(OC(F)(F)F)cc4)n3)cc2)c(C)c1 [Compound 72C]
pest or weed control at 50 µg/cm2, 50 µg/cm2 [1]: 50 to 100% | pest or weed control at 200 ppm [2]: 0 to 80% | pest or weed control at 50 µg/cm2, 50 µg/cm2 [3]: 50 to 100%

CCc1cccc(C)c1N1CCCS/C1=N\N=C\c1ccc(-c2ncn(-c3ccc(OC(F)(F)F)cc3)n2)cc1 [Compound 180C]
pest or weed control at 50 µg/cm2, 50 µg/cm2 [1]: 50 to 100% | pest or weed control at 200 ppm [2]: 0 to 80% | pest or weed control at 50 µg/cm2, 50 µg/cm2 [3]: 50 to 100%

CC(C)c1ccccc1N1/C(=N/N=C/c2ccc(-c3ncn(-c4ccc(OC(F)(F)F)cc4)n3)cc2)SCC1(C)O (stereo not drawn) [Compound 242C]
pest or weed control at 50 µg/cm2, 50 µg/cm2 [1]: 50 to 100% | pest or weed control at 200 ppm [2]: 0 to 80% | pest or weed control at 50 µg/cm2, 50 µg/cm2 [3]: 50 to 100%

CCC(C)c1ccccc1N1/C(=N/N=C/c2ccc(-c3ncn(-c4ccc(OC(F)(F)F)cc4)n3)cc2)SCC1(C)O (stereo not drawn) [Compound 243C]
pest or weed control at 50 µg/cm2, 50 µg/cm2 [1]: 50 to 100% | pest or weed control at 200 ppm [2]: 0 to 80% | pest or weed control at 50 µg/cm2, 50 µg/cm2 [3]: 50 to 100%

COc1ccc(N2/C(=N/N=C/c3ccc(-c4ncn(-c5ccc(OC(F)(F)F)cc5)n4)cc3)SCC2(C)O)c(C)c1 (stereo not drawn) [Compound 245C]
pest or weed control at 50 µg/cm2, 50 µg/cm2 [1]: 50 to 100% | pest or weed control at 200 ppm [2]: 0 to 80% | pest or weed control at 50 µg/cm2, 50 µg/cm2 [3]: 50 to 100%

Cc1ccccc1N1/C(=N/N=C/c2ccc(-c3ncn(-c4ccc(OC(F)(F)F)cc4)n3)cc2)SCC1(C)O (stereo not drawn) [Compound 248C]
pest or weed control at 50 µg/cm2, 50 µg/cm2 [1]: 50 to 100% | pest or weed control at 200 ppm [2]: 0 to 80% | pest or weed control at 50 µg/cm2, 50 µg/cm2 [3]: 50 to 100%

CC(C)c1cccc(F)c1N1/C(=N/N=C/c2ccc(-c3ncn(-c4ccc(OC(F)(F)F)cc4)n3)cc2)SCC1(C)O (stereo not drawn) [Compound 250C]
pest or weed control at 50 µg/cm2, 50 µg/cm2 [1]: 50 to 100% | pest or weed control at 200 ppm [2]: 0 to 80% | pest or weed control at 50 µg/cm2, 50 µg/cm2 [3]: 50 to 100%

Cc1ccc(N2/C(=N/N=C/c3ccc(-c4ncn(-c5ccc(OC(F)(F)F)cc5)n4)cc3)SCC2(C)O)c(C(C)C)c1 (stereo not drawn) [Compound 251C]
pest or weed control at 50 µg/cm2, 50 µg/cm2 [1]: 50 to 100% | pest or weed control at 200 ppm [2]: 0 to 80% | pest or weed control at 50 µg/cm2, 50 µg/cm2 [3]: 50 to 100%

CCc1ccccc1N1/C(=N/N=C/c2ccc(-c3ncn(-c4ccc(OC(F)(F)F)cc4)n3)cc2)SCC1(C)O (stereo not drawn) [Compound 254C]
pest or weed control at 50 µg/cm2, 50 µg/cm2 [1]: 50 to 100% | pest or weed control at 200 ppm [2]: 0 to 80% | pest or weed control at 50 µg/cm2, 50 µg/cm2 [3]: 50 to 100%

CCCc1ccccc1N1/C(=N/N=C/c2ccc(-c3ncn(-c4ccc(OC(F)(F)F)cc4)n3)cc2)SCC1(C)O (stereo not drawn) [Compound 256C]
pest or weed control at 50 µg/cm2, 50 µg/cm2 [1]: 50 to 100% | pest or weed control at 200 ppm [2]: 0 to 80% | pest or weed control at 50 µg/cm2, 50 µg/cm2 [3]: 50 to 100%

CC(C)c1ccccc1N1/C(=N/N=C/c2ccc(-c3ncn(-c4ccc(OC(F)(F)C(F)(F)F)cc4)n3)cc2)SCC1(C)O (stereo not drawn) [Compound 262C]
pest or weed control at 50 µg/cm2, 50 µg/cm2 [1]: 50 to 100% | pest or weed control at 200 ppm [2]: 0 to 80% | pest or weed control at 50 µg/cm2, 50 µg/cm2 [3]: 50 to 100%

CC(C)c1ccccc1N1/C(=N/N=C/c2ccc(-c3ncn(-c4ccc(OC(F)(F)F)cc4)n3)cc2)SCC1(O)c1ccccc1C(F)(F)F (stereo not drawn) [Compound 263C]
pest or weed control at 50 µg/cm2, 50 µg/cm2 [1]: 50 to 100% | pest or weed control at 200 ppm [2]: 0 to 80% | pest or weed control at 50 µg/cm2, 50 µg/cm2 [3]: 50 to 100%

FC(F)(F)Oc1ccc(-n2cnc(-c3ccc(/C=N/NC(=S)Nc4ccccc4C4CCCC4)cc3)n2)cc1 [Compound I-35]
melting point: 213 to 216 °C

Cc1cccc(NC(=S)N/N=C/c2ccc(-c3ncn(-c4ccc(OC(F)(F)F)cc4)n3)cc2)c1C(C)C [Compound I-43]
melting point: 219 to 222 °C

Cc1ccc(C(C)C)c(NC(=S)NN)c1 [Compound I-46]
melting point: 167 to 169 °C

CC(C)c1cc(F)ccc1NC(=S)NN [Compound I-50]
melting point: 163 to 167 °C

CC(C)c1cc(F)c(F)cc1NC(=S)NN [Compound I-54]
melting point: 169 to 170 °C

CC(C)c1cc(F)c(F)cc1NC(=S)N/N=C/c1ccc(-c2ncn(-c3ccc(OC(F)(F)F)cc3)n2)cc1 [Compound I-55]
melting point: 217 to 221 °C
